Results reported in US20210338629A1, “ORAL FORMULATIONS OF PHENYLALANINE AND CANNABINOIDS” (priority 2018, published 2021).
Like-named read-outs stand apart in the source and are kept apart here.

Key:
[1] = biological target: T1, human CB1R (Homo sapiens, UniProt P21554); type: cell-based
T1 construct: expressed in transfected cells; host or cells: HEK293T (HEK293T-CB1), transiently co-transfected with the CRE-luc reporter

[2] = biological target: T1, human CB1R; type: cell-based; conditions: for Effect of the cannabinoid on the DLPA effect (DLPA alone vs combos): FIG. 5A-5C
[3] = cited from earlier work
[4] = system: inflammation; conditions: co-administered with THC; cited from earlier work
[5] = system: glutamatergic synapses in hippocampus and cortex; conditions: cited from earlier work
[6] = system: neuropathic and chronic pain; conditions: 1,000 mg given ×1 (once a day); cited from earlier work
[7] = biological target: α2δ Ca2+ calcium channels; conditions: antagonist; cited from earlier work
[8] = THCA or THC without DLPA, 10 μM
[9] = DLPA 1 mM, alone or + 10 μM THCA or THC
[10] = DLPA 2.5 mM, alone or + 10 μM THCA or THC
[11] = DLPA 5 mM, alone or + 10 μM THCA or THC
[12] = DLPA 7.5 mM, alone or + 10 μM THCA or THC
[13] = DLPA 10 mM, alone or + 10 μM THCA or THC
[14] = DLPA 1 mM, alone or + 10 μM THCA, 1 μM CBD or 10 μM THC
[15] = DLPA 2.5 mM, alone or + 10 μM THCA, 1 μM CBD or 10 μM THC
[16] = DLPA 5 mM, alone or + 10 μM THCA, 1 μM CBD or 10 μM THC
[17] = DLPA 7.5 mM, alone or + 10 μM THCA, 1 μM CBD or 10 μM THC
[18] = DLPA 10 mM, alone or + 10 μM THCA, 1 μM CBD or 10 μM THC

T1 sequence (P21554 whole entry): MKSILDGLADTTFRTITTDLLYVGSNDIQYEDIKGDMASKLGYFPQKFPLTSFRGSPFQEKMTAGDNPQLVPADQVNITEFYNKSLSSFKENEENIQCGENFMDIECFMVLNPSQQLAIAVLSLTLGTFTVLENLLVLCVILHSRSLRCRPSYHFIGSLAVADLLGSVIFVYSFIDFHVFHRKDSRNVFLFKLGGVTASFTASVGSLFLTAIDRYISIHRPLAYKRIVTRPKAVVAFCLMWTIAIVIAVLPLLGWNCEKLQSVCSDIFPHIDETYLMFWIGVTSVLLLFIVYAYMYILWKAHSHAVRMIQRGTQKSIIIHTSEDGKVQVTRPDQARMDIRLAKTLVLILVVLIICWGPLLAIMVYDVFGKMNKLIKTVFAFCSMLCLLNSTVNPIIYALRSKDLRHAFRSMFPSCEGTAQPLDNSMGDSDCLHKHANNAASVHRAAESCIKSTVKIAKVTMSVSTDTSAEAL

SMILES: CCCCCc1cc2c(c(O)c1C(=O)O)[C@@H]1C=C(C)CC[C@H]1C(C)(C)O2 [THCA, tetrahydrocannabinolic acid]
- Conclusions: Is CB1R agonist effect observed? ([1]; THCA or THC alone, 10 μM): Negative (Only treatments that the mean of three consecutive independent experiments shows a positive result: CB1R activity ≥2.5-fold increase or ≥4-fold increase are considered CB1R agonists or CB1R positive allosteric modulators)
- Experiment 1 Fold change ([1]; THCA or THC alone, 10 μM): 0.8 fold change
- Experiment 2 Fold change ([1]; THCA or THC alone, 10 μM): 1.0 fold change
- Experiment 3 Fold change ([1]; THCA or THC alone, 10 μM): 1.0 fold change
- Effect of the cannabinoid on the DLPA effect (DLPA alone vs combos) [2]: did not modify the DLPA effect
- Conclusions: Is CB1R positive allosteric agonism effect observed? [2, 8]: Negative (Only treatments that the mean of three consecutive independent experiments shows a positive result (CB1R activity ≥4-fold change) are considered positive CB1R allosteric agonists)
- Experiment 1 Fold change [2, 8]: 2.2 fold change
- Experiment 2 Fold change [2, 8]: 3.1 fold change
- Experiment 3 Fold change [2, 8]: 2.8 fold change
- Decarboxylation by gastric acids [3]: do not decarboxylate

SMILES: CCCCCc1cc(O)c2c(c1)OC(C)(CCC=C(C)C)C=C2 (stereo not drawn) [CBC, cannabichromene]
- Anti-inflammatory effect [4]: enhanced anti-inflammatory effect

SMILES: N[C@H](Cc1ccccc1)C(=O)O [D-phenylalanine]
- Effect on neurotransmitter release (in words) ([5]; compared with L-Phenylalanine): significantly smaller effect

SMILES: NC(Cc1ccccc1)C(=O)O (racemic) [DLPA, DL-Phenylalanine]
- Conclusions: Is CB1R agonist effect observed? [1, 9]: Negative (Only treatments that the mean of three consecutive independent experiments shows a positive result: CB1R activity ≥2.5-fold increase or ≥4-fold increase are considered CB1R agonists or CB1R positive allosteric modulators)
- Experiment 1 Fold change [1, 9]: 0.9 fold change
- Experiment 2 Fold change [1, 9]: 0.9 fold change
- Experiment 3 Fold change [1, 9]: 1.0 fold change
- Conclusions: Is CB1R agonist effect observed? [1, 10]: Negative (Only treatments that the mean of three consecutive independent experiments shows a positive result: CB1R activity ≥2.5-fold increase or ≥4-fold increase are considered CB1R agonists or CB1R positive allosteric modulators)
- Experiment 1 Fold change [1, 10]: 1.0 fold change
- Experiment 2 Fold change [1, 10]: 0.9 fold change
- Experiment 3 Fold change [1, 10]: 0.9 fold change
- Conclusions: Is CB1R agonist effect observed? [1, 11]: Negative (Only treatments that the mean of three consecutive independent experiments shows a positive result: CB1R activity ≥2.5-fold increase or ≥4-fold increase are considered CB1R agonists or CB1R positive allosteric modulators)
- Experiment 1 Fold change [1, 11]: 0.8 fold change
- Experiment 2 Fold change [1, 11]: 0.8 fold change
- Experiment 3 Fold change [1, 11]: 0.7 fold change
- Conclusions: Is CB1R agonist effect observed? [1, 12]: Negative (Only treatments that the mean of three consecutive independent experiments shows a positive result: CB1R activity ≥2.5-fold increase or ≥4-fold increase are considered CB1R agonists or CB1R positive allosteric modulators)
- Experiment 1 Fold change [1, 12]: 1.0 fold change
- Experiment 2 Fold change [1, 12]: 0.8 fold change
- Experiment 3 Fold change [1, 12]: 1.0 fold change
- Conclusions: Is CB1R agonist effect observed? [1, 13]: Negative (Only treatments that the mean of three consecutive independent experiments shows a positive result: CB1R activity ≥2.5-fold increase or ≥4-fold increase are considered CB1R agonists or CB1R positive allosteric modulators)
- Experiment 1 Fold change [1, 13]: 1.1 fold change
- Experiment 2 Fold change [1, 13]: 1.0 fold change
- Experiment 3 Fold change [1, 13]: 1.0 fold change
- CB1R agonistic activity (in words) ([1]; all tested concentrations, DLPA 1-10 mM, THC or THCA 10 μM): did not show CB1R agonistic activity
- Conclusions: Is CB1R positive allosteric agonism effect observed? [2, 14]: Negative (Only treatments that the mean of three consecutive independent experiments shows a positive result (CB1R activity ≥4-fold change) are considered positive CB1R allosteric agonists)
- Experiment 1 Fold change [2, 14]: 2.7 fold change
- Experiment 2 Fold change [2, 14]: 2.5 fold change
- Experiment 3 Fold change [2, 14]: 3.0 fold change
- Conclusions: Is CB1R positive allosteric agonism effect observed? [2, 15]: Negative (Only treatments that the mean of three consecutive independent experiments shows a positive result (CB1R activity ≥4-fold change) are considered positive CB1R allosteric agonists)
- Experiment 1 Fold change [2, 15]: 2.4 fold change
- Experiment 2 Fold change [2, 15]: 2.1 fold change
- Experiment 3 Fold change [2, 15]: 4.0 fold change
- Conclusions: Is CB1R positive allosteric agonism effect observed? [2, 16]: Negative (Only treatments that the mean of three consecutive independent experiments shows a positive result (CB1R activity ≥4-fold change) are considered positive CB1R allosteric agonists)
- Experiment 1 Fold change [2, 16]: 3.1 fold change
- Experiment 2 Fold change [2, 16]: 2.7 fold change
- Experiment 3 Fold change [2, 16]: 2.9 fold change
- Conclusions: Is CB1R positive allosteric agonism effect observed? [2, 17]: Negative (Only treatments that the mean of three consecutive independent experiments shows a positive result (CB1R activity ≥4-fold change) are considered positive CB1R allosteric agonists)
- Experiment 1 Fold change [2, 17]: 3.1 fold change
- Experiment 2 Fold change [2, 17]: 3.1 fold change
- Experiment 3 Fold change [2, 17]: 5.0 fold change
- Conclusions: Is CB1R positive allosteric agonism effect observed? [2, 18]: Allosterism (An increase of the fold change ≥4-fold indicates CB1R positive allosteric agonistic activity)
- Experiment 1 Fold change [2, 18]: 4.0 fold change
- Experiment 2 Fold change [2, 18]: 3.5 fold change
- Experiment 3 Fold change [2, 18]: 6.5 fold change
- CB1R positive allosteric effect (in words) ([2]; on CP-55940 activity, dose-response curve, FIG. 4): clear CB1R positive allosteric effect
- Relief of neuropathic and chronic pain [6]: beneficial

SMILES: C=C(C)[C@@H]1CCC(C)=C[C@H]1c1c(O)cc(CCCCC)c(C(=O)O)c1O [CBDA, cannabidiolic acid]
- Decarboxylation by gastric acids [3]: do not decarboxylate

SMILES: N[C@@H](Cc1ccccc1)C(=O)O [L-Phenylalanine, L-phenylalanine]
- Ki [7]: 0.98 µM
- IC50 ([5]; hippocampus and cortex): 980 µM

SMILES: C=C(C)[C@@H]1CCC(C)=C[C@H]1c1c(O)cc(CCCCC)cc1O [CBD, cannabidiol, reference compound]
- Conclusions: Is CB1R positive allosteric agonism effect observed? ([2]; CBD without DLPA, 1 μM): Negative (Only treatments that the mean of three consecutive independent experiments shows a positive result (CB1R activity ≥4-fold change) are considered positive CB1R allosteric agonists)
- Experiment 1 Fold change ([2]; CBD without DLPA, 1 μM): 1.4 fold change
- Experiment 2 Fold change ([2]; CBD without DLPA, 1 μM): 1.5 fold change
- Experiment 3 Fold change ([2]; CBD without DLPA, 1 μM): 1.4 fold change
- Effect of the cannabinoid on the DLPA effect (DLPA alone vs combos) [2]: blocked not only the DLPA CB1R allosteric activity, but also the agonistic activity of CP-55940

SMILES: CCCCCCC(C)(C)c1ccc([C@@H]2C[C@H](O)CC[C@H]2CCCO)c(O)c1 [CP, reference compound]
- Experiment 1 Fold change [1]: 2.5 fold change
- Experiment 2 Fold change [1]: 2.5 fold change
- Experiment 3 Fold change [1]: 2.5 fold change
- Experiment 1 Fold change [2]: 2.5 fold change
- Experiment 2 Fold change [2]: 2.5 fold change
- Experiment 3 Fold change [2]: 2.5 fold change
